In patent US10745356B2, “Compositions and methods for treating tuberculosis” (priority 2015, dated 2020):
In brackets after ≈: the same amount, converted by molar mass.

tested on: M. tuberculosis strains; experiment: Minimum Inhibitory Concentration (MIC) against M. tuberculosis strains, resazurin microtiter plate assay; assay type: cell-based, Mycobacterium tuberculosis; conditions: Mycobacterium tuberculosis

Structure (SMILES) | MIC90 [µM]
Cc1cc2nccc(-c3ccccc3)c2c(C)c1-c1ccn(C)n1 [Compound 75] | > 125
Cc1cc2nccc(-c3ccccc3)c2c(C)c1-c1ccnn1C [Compound 76] | 47 (≈ 14.7 µg/mL)
Cc1cc2nccc(-c3ccccc3)c2c(C)c1-c1cnn(C)c1 [Compound 77] | 47 (≈ 14.7 µg/mL)
CNC(=O)c1cc(-c2ccccc2F)c2c(C)c(-c3ccoc3)c(C)cc2n1 [Compound 80] | 0.6 (≈ 0.225 µg/mL)
CNC(=O)c1cc(-c2ccccc2F)c2c(C)c(C3=CCNCC3)c(C)cc2n1 [Compound 86] | 20 (≈ 7.79 µg/mL)
CNC(=O)c1cc(-c2ccccc2F)c2c(C)c(C3=CCC(CO)CC3)c(C)cc2n1 (centres unmarked) [Compound 91] | 0.6 (≈ 0.251 µg/mL)

same assay, conditions: Mycobacterium tuberculosis, Table 4A, C6 SAR with amide; Middlebrook 7H9, 37° C. six days, resazurin fluorescence after 48 hours; read-out: MIC90

Structure (SMILES) | MIC90 [µM]
CNC(=O)c1cc(-c2ccccc2F)c2c(C)c(-c3ccc(CN4CCOCC4)cc3)c(C)cc2n1 [Compound 78] | 0.6 (≈ 0.29 µg/mL)
CNC(=O)c1cc(-c2ccccc2F)c2c(C)c(-c3ccnc(C(F)(F)F)c3)c(C)cc2n1 [Compound 79] | 5 (≈ 2.27 µg/mL)
CNC(=O)c1cc(-c2ccccc2F)c2c(C)c(-c3cccs3)c(C)cc2n1 [Compound 81] | 3 (≈ 1.17 µg/mL)
CNC(=O)c1cc(-c2ccccc2F)c2c(C)c(-c3cnc(C(=O)O)nc3)c(C)cc2n1 [Compound 82] | 80 (≈ 34.4 µg/mL)
CNC(=O)c1cc(-c2ccccc2F)c2c(C)c(-c3ccnc(N)c3)c(C)cc2n1 [Compound 83] | 7.5 (≈ 3 µg/mL)
CNC(=O)c1cc(-c2ccccc2F)c2c(C)c(-c3ccnc(C)c3)c(C)cc2n1 [Compound 84] | 6 (≈ 2.4 µg/mL)
CNC(=O)c1cc(-c2ccccc2F)c2c(C)c(-c3cccnc3)c(C)cc2n1 [Compound 85] | 3 (≈ 1.16 µg/mL)
CNC(=O)c1cc(-c2ccccc2F)c2c(C)c(C3=CCC(C(=O)O)CC3)c(C)cc2n1 (centres unmarked) [Compound 87] | 2.5 (≈ 1.08 µg/mL)
CNC(=O)c1cc(-c2ccccc2F)c2c(C)c(C3=CCN(S(=O)(=O)N4CCOCC4)CC3)c(C)cc2n1 [Compound 88] | 10 (≈ 5.39 µg/mL)
CNC(=O)c1cc(-c2ccccc2F)c2c(C)c(C3=CCC(C(=O)N4CCOCC4)CC3)c(C)cc2n1 (centres unmarked) [Compound 89] | 1.25 (≈ 0.627 µg/mL)
CNC(=O)c1cc(-c2ccccc2F)c2c(C)c(C3=CCN(C(=O)N4CCOCC4)CC3)c(C)cc2n1 [Compound 90] | 5 (≈ 2.51 µg/mL)
CNC(=O)c1cc(-c2ccccc2F)c2c(C)c(C3=CCC(CN4CCOCC4)CC3)c(C)cc2n1 (centres unmarked) [Compound 92] | 1.25 (≈ 0.61 µg/mL)

same assay, conditions: Mycobacterium tuberculosis, Table 5; Middlebrook 7H9, 37° C. six days, resazurin fluorescence after 48 hours; read-out: MIC90

Structure (SMILES) | MIC90 [µM]
Cc1cc2nccc(-c3cccnc3)c2c(C)c1-c1ccc(CN2CCOCC2)cc1 [Compound 93] | 1.6 (≈ 0.655 µg/mL)
Cc1cc2nc(C(=O)NS(C)(=O)=O)cc(-c3ccccc3Cl)c2c(C)c1-c1ccncc1 [Compound 94] | 5 (≈ 2.33 µg/mL)
CNC(=O)c1cc(-c2ccccc2)c2c(C)c(-c3ccncc3)c(C)cc2n1 [Compound 95] | 0.3 (≈ 0.11 µg/mL)
Cc1cc2nc(C(=O)NCCO)cc(-c3ccccc3)c2c(C)c1-c1ccncc1 [Compound 96] | 0.3 (≈ 0.119 µg/mL)
Cc1cc2nc(C(=O)N[C@H]3CCC[C@@H]3O)cc(-c3ccccc3F)c2c(C)c1-c1ccncc1 [Compound 97] | < 0.16
Cc1cc2nc(C(=O)N[C@@H]3CCC[C@H]3O)cc(-c3ccccc3F)c2c(C)c1-c1ccncc1 [Compound 98] | 0.6 (≈ 0.273 µg/mL)
CNC(=O)c1cc(C2=CCOCC2)c2c(C)c(-c3ccncc3)c(C)cc2n1 [Compound 99] | 12.5 (≈ 4.67 µg/mL)
CNC(=O)c1cc(N2CCN(C)CC2)c2c(C)c(-c3ccncc3)c(C)cc2n1 [Compound 100] | > 50
CNC(=O)c1cc(N2CCNCC2)c2c(C)c(-c3ccncc3)c(C)cc2n1 [Compound 101] | > 50
CNC(=O)c1cc(C2=CCCCC2)c2c(C)c(-c3ccncc3)c(C)cc2n1 [Compound 102] | 3 (≈ 1.11 µg/mL)

same assay, conditions: Mycobacterium tuberculosis, Table 6; Middlebrook 7H9, 37° C. six days, resazurin fluorescence after 48 hours; read-out: MIC90

Structure (SMILES) | MIC90 [µM]
Cc1cc2nc(C(=O)N3CCC(N(C)C)C3)cc(-c3ccccc3Cl)c2c(C)c1-c1ccc(CN2CCOCC2)cc1 (centres unmarked) [Compound 103] | 0.8 (≈ 0.467 µg/mL)
CNC(=O)c1cc(-c2ccnn2C)c2c(C)c(-c3ccncc3)c(C)cc2n1 [Compound 104] | 6 (≈ 2.23 µg/mL)
Cc1cc2nc(C(=O)N[C@@H]3CN(C)C[C@@H]3F)cc(-c3ccnn3C)c2c(C)c1-c1ccncc1 [Compound 106] | 1.6 (≈ 0.734 µg/mL)
Cc1cc2nc(C(=O)NCCO)cc(-c3ccnn3C)c2c(C)c1-c1ccncc1 [Compound 107] | 1.6 (≈ 0.642 µg/mL)
